Read-outs that look alike come from different tables or passages of the source.
Columns and labels:
[1] = molecular target: full-length RORγt in Jurkat cells (Homo sapiens (Human), UniProt P51449); test: RORγt 5xRORE Assay in Jurkat Cells (Assay 2); format: cell-based; conditions: Nanoluc luciferase reporter, 16-18 hrs
Procedure, shortened: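 Jurkat cells co-transfected with full-length RORγt expression plasmid and a 5×RORE-driven secreted Nanoluc reporter, then plated at 80,000 cells/well in phenol-red-free RPMI with 10% delipidated FBS. Compounds added at 0.1% DMSO for 16–18 h at 37 °C; supernatant luciferase read for inverse agonism.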

[2] = molecular target: recombinant RORγ Ligand Binding Domain (LBD) protein (Homo sapiens (Human), UniProt P51449); test: Radio-Ligand RORγ Binding Assay (Assay 1); conditions: competition with 25-hydroxy [26,27-3H]-cholesterol, SPA, read-out: RORγ Binding Ki Range*
Procedure, shortened: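 Scintillation proximity competition binding of 8.6 nM stock 25-hydroxy[26,27-3H]cholesterol to 24 nM stock 6×His-GST-tagged human RORγ LBD, in 50 mM HEPES pH 7.4 with NaCl, MgCl2, glycerol, CHAPS, β-octylglucopyranoside and DTT, room temperature. Inhibition referenced to DMSO and 10 μM T0901317; IC50 by four-parameter fit, converted to Ki using radioligand concentration and KD.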

[3] = Table 8, read-out: RORγt5X IC50 Range*
[4] = Table 9, read-out: RORγt5X IC50 Range*

Sequence of full-length RORγt in Jurkat cells (P51449 other isoform, or with tags, fused parts or gaps): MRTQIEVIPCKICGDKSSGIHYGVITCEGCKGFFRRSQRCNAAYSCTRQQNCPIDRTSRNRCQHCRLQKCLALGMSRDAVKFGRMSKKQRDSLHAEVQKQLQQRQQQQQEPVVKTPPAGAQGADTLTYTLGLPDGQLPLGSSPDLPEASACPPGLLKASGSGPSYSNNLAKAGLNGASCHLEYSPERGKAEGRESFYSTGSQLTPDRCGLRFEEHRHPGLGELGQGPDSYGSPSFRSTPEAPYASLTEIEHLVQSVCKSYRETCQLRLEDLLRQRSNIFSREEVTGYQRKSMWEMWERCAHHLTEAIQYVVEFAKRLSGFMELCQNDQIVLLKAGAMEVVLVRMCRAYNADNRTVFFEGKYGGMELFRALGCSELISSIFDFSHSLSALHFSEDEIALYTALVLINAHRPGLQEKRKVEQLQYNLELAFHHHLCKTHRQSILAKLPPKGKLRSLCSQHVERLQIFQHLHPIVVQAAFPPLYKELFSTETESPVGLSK
Sequence of recombinant RORγ Ligand Binding Domain (LBD) protein (P51449 269-508): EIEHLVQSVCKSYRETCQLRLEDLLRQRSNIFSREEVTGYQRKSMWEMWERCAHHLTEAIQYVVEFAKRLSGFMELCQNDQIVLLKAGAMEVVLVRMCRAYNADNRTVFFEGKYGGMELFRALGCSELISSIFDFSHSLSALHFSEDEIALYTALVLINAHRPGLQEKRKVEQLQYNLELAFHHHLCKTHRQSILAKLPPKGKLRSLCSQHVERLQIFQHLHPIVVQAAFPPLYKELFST

IC50 [1, 3] | Ki ([2]; Table 8) | IC50 [1, 4] | Ki ([2]; Table 9) | Compound
< 0.1 µM | < 0.1 µM |  |  | CCS(=O)(=O)c1ccc(CC(=O)Nc2nc3c(s2)CN(Cc2ccc(OC(F)F)cc2)[C@H]3C(C)C)cc1 [I-A1, (S)—N-(5-(4-(difluoromethoxy)benzyl)-4-isopropyl-5,6-dihydro-4H-pyrrolo[3,4-d]thiazol-2-yl)-2-(4-(ethylsulfonyl)phenyl)acetamide]
 |  | > 1 µM | < 0.1 µM | CCS(=O)(=O)c1ccc(CC(=O)Nc2nc3c(s2)CN([C@H](C)c2ccccc2)[C@@H]3C(C)C)cc1 (single isomer, unassigned)
 |  | > 1 µM | < 0.1 µM | CCS(=O)(=O)c1ccc(CC(=O)Nc2nc3c(s2)CN(Cc2ccc(F)cc2)[C@@H]3C(C)C)cc1
 |  | 0.1 to 1 µM | < 0.1 µM | CCS(=O)(=O)c1ccc(CC(=O)Nc2nc3c(s2)CN(C[C@H]2CC[C@@](OC)(C(F)(F)F)CC2)[C@H]3C(C)C)nc1 (single isomer, unassigned)
< 0.1 µM | < 0.1 µM |  |  | CC(C)[C@H]1c2nc(NC(=O)Cc3ccc(S(C)(=O)=O)cc3)sc2CN1Cc1ccc(C(F)(F)F)cn1 [I-B4]
 |  | > 1 µM | 0.1 to 1 µM | CC(C)[C@@H]1c2nc(NC(=O)Cc3ccc(S(C)(=O)=O)cc3)sc2CN1Cc1cccc(C#N)c1
 |  | > 1 µM | < 0.1 µM | CCS(=O)(=O)c1ccc(CC(=O)Nc2nc3c(s2)CN([C@@H](C)c2ccccc2)[C@@H]3C(C)C)cc1 (single isomer, unassigned)
 |  | < 0.1 µM | < 0.1 µM | CCS(=O)(=O)c1ccc(CC(=O)Nc2nc3c(s2)CN(Cc2ccn(CC(F)(F)F)c(=O)c2)[C@H]3C(C)C)cc1
 |  | 0.1 to 1 µM | < 0.1 µM | CCS(=O)(=O)c1ccc(CC(=O)Nc2nc3c(s2)CN(C[C@H]2CC[C@H](OC)CC2)[C@H]3C(C)C)cc1
 |  | > 1 µM | < 0.1 µM | CCS(=O)(=O)c1ccc(CC(=O)Nc2nc3c(s2)CN(Cc2ccc4c(c2)CCO4)[C@H]3C(C)C)cc1
 |  | > 1 µM | < 0.1 µM | CCS(=O)(=O)c1ccc(CC(=O)Nc2nc3c(s2)CN(C[C@H]2CC[C@](C)(C#N)CC2)[C@H]3C(C)C)nc1 (single isomer, unassigned)
 |  | > 1 µM | < 0.1 µM | CCS(=O)(=O)c1ccc(CC(=O)Nc2nc3c(s2)CN(C[C@H]2CC[C@@H](C(F)(F)F)N(C)C2)C3C(C)C)cc1 (single isomer, unassigned)
< 0.1 µM | < 0.1 µM |  |  | CCS(=O)(=O)c1ccc(CC(=O)Nc2nc3c(s2)CN(Cc2ccc(C(F)(F)F)nc2C)[C@H]3C(C)C)cc1 [I-A21]
< 0.1 µM | < 0.1 µM |  |  | CCS(=O)(=O)c1ccc(CC(=O)Nc2nc3c(s2)CN(Cc2ccc(C#N)c(F)c2)[C@H]3C(C)C)cc1 [I-A4]
< 0.1 µM | < 0.1 µM |  |  | CCS(=O)(=O)c1ccc(CC(=O)Nc2nc3c(s2)CN([C@@H](C)c2ccc(C(F)(F)F)cc2F)[C@H]3C(C)C)cc1 [I-A37]
< 0.1 µM | < 0.1 µM |  |  | CCS(=O)(=O)c1ccc(CC(=O)Nc2nc3c(s2)CN(Cc2ccc(-c4nnn(C)n4)cc2)[C@H]3C(C)C)cc1 [I-A42]
 |  | > 1 µM | < 0.1 µM | COc1ccc(CC(=O)Nc2nc3c(s2)CN(Cc2ccc(Cl)cc2)[C@H]3C(C)C)cc1
 |  | > 1 µM | 0.1 to 1 µM | CC(C)[C@H]1c2nc(NC(=O)Cc3ccccc3)sc2CN1Cc1ccc(Cl)cc1
< 0.1 µM | < 0.1 µM |  |  | CCS(=O)(=O)c1ccc(CC(=O)Nc2nc3c(s2)CN(Cc2ccc(C4CC4)cc2)[C@H]3C(C)C)cc1 [I-A59]
< 0.1 µM | < 0.1 µM |  |  | CCS(=O)(=O)c1ccc(CC(=O)Nc2nc3c(s2)CN(Cc2ccc(C#N)cn2)[C@H]3C(C)C)cc1 [I-A5]
 |  | > 1 µM | < 0.1 µM | CCS(=O)(=O)c1ccc(CC(=O)Nc2nc3c(s2)CN(Cc2ccc(OC(F)F)cc2)[C@@H]3C(C)C)cc1

IC50 [1, 3] | Ki ([2]; Table 8) | IC50 [1, 4] | Ki ([2]; Table 9) | Compound
 |  | < 0.1 µM | < 0.1 µM | Cc1nnc(-c2ccc(CN3Cc4sc(NC(=O)Cc5ccc(S(C)(=O)=O)cc5)nc4[C@@H]3C(C)C)cc2)o1
 |  | > 1 µM | 0.1 to 1 µM | CCS(=O)(=O)c1ccc(CC(=O)Nc2nc3c(s2)CN(Cc2ccn(C)c(=O)c2)[C@H]3C(C)C)cc1
 |  | > 1 µM | < 0.1 µM | CCS(=O)(=O)c1ccc(CC(=O)Nc2nc3c(s2)CN(Cc2ccncc2)[C@H]3C(C)C)cc1
 |  | > 1 µM | < 0.1 µM | CCS(=O)(=O)c1ccc(CC(=O)Nc2nc3c(s2)CN(c2nccc(C(F)(F)F)n2)[C@H]3C(C)C)cc1
< 0.1 µM | < 0.1 µM |  |  | CC(C)[C@H]1c2nc(NC(=O)Cc3ccc(S(C)(=O)=O)cc3)sc2CN1[C@@H](C)c1ccc(C#N)c(F)c1 [I-B12]
 |  | 0.1 to 1 µM | < 0.1 µM | CCOc1ccc(CN2Cc3sc(NC(=O)Cc4ccc(S(=O)(=O)CC)cc4)nc3[C@H]2CC)cc1
 |  | 0.1 to 1 µM | < 0.1 µM | CC[C@H]1c2nc(NC(=O)Cc3ccc(S(=O)(=O)CC)cc3)sc2CN1[C@@H](C)c1ncc(Cl)cc1F
 |  | > 1 µM | < 0.1 µM | CCS(=O)(=O)c1ccc(CC(=O)Nc2nc3c(s2)CN(c2nc4cccnc4s2)[C@H]3C(C)C)cc1
 |  | 0.1 to 1 µM | < 0.1 µM | CC(C)[C@H]1c2nc(C(=O)NCc3ccc(S(C)(=O)=O)cc3)sc2CN1Cc1ccc(C#N)cc1F
< 0.1 µM | < 0.1 µM |  |  | CCS(=O)(=O)c1ccc(CC(=O)Nc2nc3c(s2)CN(Cc2ccc(C(F)(F)F)cc2C#N)[C@H]3C(C)C)cc1 [I-A45]
 |  | 0.1 to 1 µM | < 0.1 µM | CCS(=O)(=O)c1ccc(CC(=O)Nc2nc3c(s2)CN(Cc2ccn(C4CC4)c(=O)c2)[C@H]3C(C)C)cc1
 |  | 0.1 to 1 µM | < 0.1 µM | CC[C@H](C)C1c2nc(C(=O)NCc3ccc(S(C)(=O)=O)cc3)sc2CN1Cc1ccc(OC(F)F)cc1 (stereo partly drawn)
< 0.1 µM | < 0.1 µM |  |  | Cc1cc(CN2Cc3sc(NC(=O)Cc4ccc(S(C)(=O)=O)cc4)nc3[C@@H]2C(C)C)ccc1C#N [I-B7]
< 0.1 µM | < 0.1 µM |  |  | CC(C)[C@H]1c2nc(NC(=O)Cc3ccc(S(C)(=O)=O)cc3F)sc2CN1Cc1ccc(C#N)cc1 [I-M1, (S)—N-(5-(4-cyanobenzyl)-4-isopropyl-5,6-dihydro-4H-pyrrolo[3,4-d]thiazol-2-yl)-2-(2-fluoro-4-(methylsulfonyl)phenyl)acetamide]
 |  | 0.1 to 1 µM | 0.1 to 1 µM | CC(C)[C@@H]1c2nc(NC(=O)Cc3ccc(S(C)(=O)=O)cc3)sc2CN1Cc1ccc(C(F)(F)F)cc1F
 |  | 0.1 to 1 µM | < 0.1 µM | CC[C@H]1c2nc(NC(=O)Cc3ccc(S(=O)(=O)C(F)F)cc3)sc2CN1Cc1ccc(Cl)cc1
< 0.1 µM | < 0.1 µM |  |  | CC(C)[C@H]1c2nc(NC(=O)Cc3ccc(S(C)(=O)=O)cc3)sc2CN1[C@@H](C)c1ccc(C#N)cc1 [I-B15]
 |  | > 1 µM | < 0.1 µM | CCS(=O)(=O)c1ccc(CC(=O)Nc2nc3c(s2)CN([C@H](C)Cc2ccccc2)[C@H]3C(C)C)cc1
 |  | < 0.1 µM | < 0.1 µM | CC(C)[C@H]1c2nc(NC(=O)Cc3ccc(S(C)(=O)=O)cc3)sc2CN1[C@@H](C)c1ccc(C#N)c(F)c1 (single isomer, unassigned)
 |  | > 1 µM | < 0.1 µM | CCS(=O)(=O)c1ccc(CC(=O)Nc2nc3c(s2)CN(C[C@H]2CC[C@@H](C(F)(F)F)NC2)[C@H]3C(C)C)cc1 (single isomer, unassigned)
 |  | > 1 µM | < 0.1 µM | CC(C)[C@H]1c2nc(NC(=O)Cc3ccc(Cl)cc3)sc2CN1Cc1ccc(Cl)cc1

Source: patent publication US9868748B2, “Thiazolopyrrolidine inhibitors of ROR- γ” (Vitae Pharmaceuticals, Inc., priority 2013, dated 2018)
